Assay in all cases: growth of human tumour cells (NCI), 48 h
Test [1] concerns Malme-3M.
Test [2] concerns COLO 205.
Test [3] has as its system RXF 393.
The test system of test [4] is SF-539.
The test system of test [5] is SNB-19.
The test system of test [6] is A549.
Test [7] relates to SK-MEL-5.
Test [8] has as its system SF-295.
In test [9] the test system is RPMI-8226.
Test [10] relates to MDA-MB-435.
Test [11] relates to 786-0.
In test [12] the test system is DU-145.
The test system of test [13] is CAKI-1.
Test [14] deals with M14.
In test [15] the test system is Hs-578T.
For test [16], the system named is NCI-H226.
In test [17] the test system is OVCAR-4.
Test [18] relates to K562.
Test [19] relates to TK-10.
Test [20] deals with HOP-62.
Test [21] relates to UACC-257.
The test system of test [22] is SR.
The subject of test [23] is OVCAR-3.
In test [24] the test system is NCI-H522.
Test [25] concerns ACHN.
For test [26], the system named is OVCAR-8.
Test [27] concerns MCF7.
The subject of test [28] is U-251.
Test [29] deals with IGROV-1.
Test [30] has as its system UACC-62.
For test [31], the system named is SK-MEL-28.
Test [32] has as its system SNB-75.
In test [33] the test system is SK-OV-3.

These results are taken from ChEMBL document CHEMBL1201862, “PubChem BioAssay data set” (2004).

SMILES strings stand for the structures. “And” between values parts separate entries of the source, which are not always exact repeats. Equal entries are not always repeated.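 Tested at 5 concentrations; 48 h exposure; 96-well plates; endpoints linearly interpolated, else capped at highest concentration. GI50 is the concentration that inhibits growth by half.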 The source made the active and inactive calls. Cut-off read from the data, not from the text of the source: active = GI50 up to about 1.1 µM and inactive = higher.

`O=[N+]([O-])c1ccc(OC2CC3C4C=CC3C2C4)c([N+](=O)[O-])c1` (stereo not given): the GI50 in test [1] was 31.4 µM (inactive) and 34.8 µM (inactive); in [2] it was 54 µM (inactive) and > 31.6 µM (inactive); in test [3], 42.6 µM (inactive) and > 31.6 µM (inactive); in test [4], > 31.6 µM (inactive) and 26.3 µM (inactive); in [5], 32.3 µM (inactive) and > 31.6 µM (inactive); in test [6], 31 µM (inactive) and 33.3 µM (inactive). Besides, the GI50 in test [7] is 39.8 µM (inactive) and 21 µM (inactive); in [8] it was 16.5 µM (inactive) and > 31.6 µM (inactive); in test [9], 0.0465 µM (active); in [10], > 31.6 µM (inactive) and 24.3 µM (inactive); in test [11], 24.6 µM (inactive) and > 31.6 µM (inactive); in [12], 45.8 µM (inactive) and > 31.6 µM (inactive). In addition, the GI50 is 29.2 µM (inactive) and > 31.6 µM (inactive) in [13]; 21.6 µM (inactive) and > 31.6 µM (inactive) in test [14]; 33.7 µM (inactive) and > 31.6 µM (inactive) in test [15]; > 31.6 µM (inactive) and 42 µM (inactive) in test [16]; 22.8 µM (inactive) and > 31.6 µM (inactive) in test [17]; 30.8 µM (inactive) and > 31.6 µM (inactive) in test [18]. Besides, the GI50 in test [19] is > 31.6 µM (inactive) and 33.7 µM (inactive); in test [20], 45 µM (inactive) and > 31.6 µM (inactive); in test [21], 20.9 µM (inactive) and > 31.6 µM (inactive); in test [22], > 10 µM (inactive); in test [23], 43.5 µM (inactive) and 29.4 µM (inactive); in [24], 43.6 µM (inactive) and > 31.6 µM (inactive). Besides, the GI50 in [25] was 37.4 µM (inactive) and > 31.6 µM (inactive); in [26] it was 39.2 µM (inactive) and > 31.6 µM (inactive); in test [27], > 100 µM (inactive) and 61.4 µM (inactive); in [28] it was 37.6 µM (inactive) and > 31.6 µM (inactive).
As to `CN(C)CC1CCCCCCCCCCC1=O` (stereo not given), the GI50 in test [29] was > 100 µM (inactive); in [30], > 100 µM (inactive); in test [31], > 100 µM (inactive); in [7] it was > 100 µM (inactive); in [15] it was 66.4 µM (inactive); in test [32] it was > 100 µM (inactive). The GI50 in test [33] is 86.7 µM (inactive).
